# Data: ChEMBL document CHEMBL1201862, “PubChem BioAssay data set” (2004)
# The source made the active and inactive calls.
# How the values were obtained:
# [1] = target: Heat shock protein HSP 90-alpha (Homo sapiens, UniProt P07900); assay type: functional, organism-based
# [2] = viability of uninfected HEp-2 cells – cell-based, HTS, cytotoxicity control for RSV inhibitor project, dose response (AID 2410); assay type: functional; details: human respiratory syncytial virus
# [3] = target: T1, Lysine-specific demethylase 4C (Homo sapiens, UniProt Q9H3R0); experiment: inhibition of JMJD2C H3K9me3 demethylation – biochemical, DELFIA europium, cherry-picked samples, dose response (AID 488835); assay type: functional
# T1 sequence (Q9H3R0 whole entry): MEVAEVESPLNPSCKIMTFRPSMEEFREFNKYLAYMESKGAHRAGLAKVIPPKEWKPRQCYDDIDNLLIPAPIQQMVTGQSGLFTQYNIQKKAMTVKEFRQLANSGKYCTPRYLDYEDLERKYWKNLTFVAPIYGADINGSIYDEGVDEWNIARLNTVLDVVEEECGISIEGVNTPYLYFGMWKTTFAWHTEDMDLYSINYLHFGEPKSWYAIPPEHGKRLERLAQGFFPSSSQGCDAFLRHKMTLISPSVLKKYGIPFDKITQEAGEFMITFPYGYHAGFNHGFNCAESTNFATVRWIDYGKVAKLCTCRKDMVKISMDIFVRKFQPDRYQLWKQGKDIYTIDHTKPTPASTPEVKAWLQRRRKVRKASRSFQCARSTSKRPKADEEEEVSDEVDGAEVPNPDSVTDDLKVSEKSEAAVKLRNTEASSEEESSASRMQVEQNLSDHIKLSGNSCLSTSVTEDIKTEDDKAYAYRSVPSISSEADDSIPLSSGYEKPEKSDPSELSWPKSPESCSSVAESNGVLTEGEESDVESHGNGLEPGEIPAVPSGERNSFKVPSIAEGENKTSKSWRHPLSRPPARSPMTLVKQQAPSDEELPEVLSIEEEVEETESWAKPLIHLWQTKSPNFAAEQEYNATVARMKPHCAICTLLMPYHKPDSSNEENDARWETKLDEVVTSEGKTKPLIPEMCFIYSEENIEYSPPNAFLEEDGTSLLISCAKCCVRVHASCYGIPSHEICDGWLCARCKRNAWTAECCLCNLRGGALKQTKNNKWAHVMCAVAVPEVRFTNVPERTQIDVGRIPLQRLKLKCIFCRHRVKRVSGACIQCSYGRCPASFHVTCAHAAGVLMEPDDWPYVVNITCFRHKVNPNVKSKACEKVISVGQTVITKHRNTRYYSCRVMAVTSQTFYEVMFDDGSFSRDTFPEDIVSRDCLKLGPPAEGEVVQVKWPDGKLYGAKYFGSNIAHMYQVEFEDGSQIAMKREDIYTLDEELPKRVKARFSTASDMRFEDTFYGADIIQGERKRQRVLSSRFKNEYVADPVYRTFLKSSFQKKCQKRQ
# INS1 = experiment: INS-1E survival protection against cytokine death – cell-based, luminescence, retest, dose response (AID 449756); assay type: functional; details: Rattus norvegicus;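 note: cell death triggered by IL-1 beta plus TNF-alpha plus IFN-gamma mixture; protective hits raise ATP signal compared with cytokine alone wells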
# [4] = target: T2, E3 ubiquitin-protein ligase XIAP (Homo sapiens, UniProt P98170); experiment: Counter Screen using XIAP-Bir3 for Chemical Antagonists of Bir1/2 domains of IAP-family anti-apoptotic proteins. [Related pubchem assays (depositor defined):AID1018, AID1449, AID1514, AID1638, AID1749, AID1750, AID488957, AID488963]
# [5] = target: T2, E3 ubiquitin-protein ligase XIAP; experiment: small molecules displacing peptide from XIAP – biochemical, IAP family, fluorescence polarization (AID 1018); assay type: functional
# [6] = target: T3, Replicative DNA helicase DnaB (Mycobacterium tuberculosis, UniProt P9WMR3); experiment: DnaB intein splicing inhibitors, dose response, biochemical, cell-free fluorescence (AID 449749); assay type: functional
# T3 sequence (P9WMR3 whole entry): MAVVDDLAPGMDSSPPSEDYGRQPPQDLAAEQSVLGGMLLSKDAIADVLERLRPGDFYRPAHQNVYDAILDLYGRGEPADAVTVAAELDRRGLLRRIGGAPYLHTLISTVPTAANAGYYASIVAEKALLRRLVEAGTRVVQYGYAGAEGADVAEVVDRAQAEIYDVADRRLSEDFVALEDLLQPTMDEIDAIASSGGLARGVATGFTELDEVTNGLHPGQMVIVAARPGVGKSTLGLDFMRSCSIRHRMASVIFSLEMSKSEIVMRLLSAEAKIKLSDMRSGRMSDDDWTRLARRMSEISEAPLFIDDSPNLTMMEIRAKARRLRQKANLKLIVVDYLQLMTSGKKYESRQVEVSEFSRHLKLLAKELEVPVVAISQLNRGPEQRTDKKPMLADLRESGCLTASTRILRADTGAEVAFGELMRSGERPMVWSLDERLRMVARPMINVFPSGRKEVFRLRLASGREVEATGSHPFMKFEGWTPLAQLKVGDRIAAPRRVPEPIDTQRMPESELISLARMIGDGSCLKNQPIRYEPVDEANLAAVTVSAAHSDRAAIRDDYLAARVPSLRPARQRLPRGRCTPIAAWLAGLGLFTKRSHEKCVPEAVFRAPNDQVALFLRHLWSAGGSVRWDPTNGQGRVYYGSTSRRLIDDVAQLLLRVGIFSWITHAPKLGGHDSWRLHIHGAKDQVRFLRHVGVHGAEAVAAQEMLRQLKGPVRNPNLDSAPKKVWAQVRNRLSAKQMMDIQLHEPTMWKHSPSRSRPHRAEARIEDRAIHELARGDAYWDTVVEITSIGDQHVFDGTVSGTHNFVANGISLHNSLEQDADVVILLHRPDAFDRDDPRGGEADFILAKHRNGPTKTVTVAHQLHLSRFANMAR
# Protein RecA = target: T4, Protein RecA (Mycobacterium tuberculosis, UniProt P9WHJ3); experiment: Fluorescence Cell-Free Homogeneous Dose Retest to Identify Inhibitors of RecA-Intein Splicing Activity. [Related pubchem assays (depositor defined):AID2097, AID2223, AID489010, AID492950]; assay type: functional
# T4 sequence (P9WHJ3 whole entry): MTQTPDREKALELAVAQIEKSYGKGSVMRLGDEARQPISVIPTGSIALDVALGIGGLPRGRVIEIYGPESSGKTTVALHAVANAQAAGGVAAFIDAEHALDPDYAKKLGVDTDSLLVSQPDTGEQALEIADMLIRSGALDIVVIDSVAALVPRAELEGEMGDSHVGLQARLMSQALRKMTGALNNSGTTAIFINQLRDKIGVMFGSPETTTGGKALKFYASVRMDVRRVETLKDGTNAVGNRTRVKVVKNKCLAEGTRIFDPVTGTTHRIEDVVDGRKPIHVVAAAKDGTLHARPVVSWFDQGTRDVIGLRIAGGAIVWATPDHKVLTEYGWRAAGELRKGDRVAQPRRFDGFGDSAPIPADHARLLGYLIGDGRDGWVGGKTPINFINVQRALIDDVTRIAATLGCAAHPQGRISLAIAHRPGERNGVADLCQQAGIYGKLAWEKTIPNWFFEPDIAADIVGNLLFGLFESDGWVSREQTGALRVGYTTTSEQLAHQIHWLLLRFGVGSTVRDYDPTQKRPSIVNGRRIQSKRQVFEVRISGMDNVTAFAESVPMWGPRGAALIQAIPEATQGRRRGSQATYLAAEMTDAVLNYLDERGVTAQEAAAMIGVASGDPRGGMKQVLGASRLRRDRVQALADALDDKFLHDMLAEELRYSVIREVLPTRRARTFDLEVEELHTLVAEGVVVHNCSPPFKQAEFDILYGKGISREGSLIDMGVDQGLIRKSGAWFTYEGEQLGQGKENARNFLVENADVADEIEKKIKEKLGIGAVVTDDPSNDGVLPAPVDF
# Genome polyprotein = Genome polyprotein (dengue virus type 2, UniProt P29990); experiment: flavivirus cap methylation enzyme inhibition – biochemical, confirmation dose response, primary screen (AID 588689); assay type: functional
# Caspase-6 = target: T5, Caspase-6 (Homo sapiens, UniProt P55212); experiment: inhibition of CASP6 peptide cleavage – biochemical, VEID-R110 fluorescence, cherry-pick, dose response (AID 720632)
# T5 sequence (P55212 whole entry): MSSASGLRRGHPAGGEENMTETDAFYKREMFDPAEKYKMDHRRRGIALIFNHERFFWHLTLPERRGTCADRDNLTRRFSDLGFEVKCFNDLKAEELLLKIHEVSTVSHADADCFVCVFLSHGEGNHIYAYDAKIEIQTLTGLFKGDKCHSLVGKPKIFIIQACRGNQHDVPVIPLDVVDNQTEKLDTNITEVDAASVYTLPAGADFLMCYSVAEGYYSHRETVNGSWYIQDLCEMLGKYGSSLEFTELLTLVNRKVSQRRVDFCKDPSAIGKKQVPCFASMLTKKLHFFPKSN
# Trypsin = Trypsin (Sus scrofa, UniProt P00761); experiment: trypsin protease activity blockade – biochemical, quenched peptide fluorescence, cherry-pick, selectivity assay for Rce1 protease inhibitor project, dose response (AID 488789)
# Phospholipase A2 = Phospholipase A2 (Homo sapiens, UniProt P04054); assay type: functional;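 note: confirmatory dose-response counterscreen on phospholipase A2, testing hits that came from an ultra-high-throughput screen for ATG4B inhibitors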
# [7] = target: T6, Calpain-2 catalytic subunit (Sus scrofa, UniProt P43367); experiment: m-calpain protease blockers, concentration series – biochemical, fluorogenic peptide substrate, dose response (AID 1420); assay type: functional
# T6 sequence (P43367 whole entry): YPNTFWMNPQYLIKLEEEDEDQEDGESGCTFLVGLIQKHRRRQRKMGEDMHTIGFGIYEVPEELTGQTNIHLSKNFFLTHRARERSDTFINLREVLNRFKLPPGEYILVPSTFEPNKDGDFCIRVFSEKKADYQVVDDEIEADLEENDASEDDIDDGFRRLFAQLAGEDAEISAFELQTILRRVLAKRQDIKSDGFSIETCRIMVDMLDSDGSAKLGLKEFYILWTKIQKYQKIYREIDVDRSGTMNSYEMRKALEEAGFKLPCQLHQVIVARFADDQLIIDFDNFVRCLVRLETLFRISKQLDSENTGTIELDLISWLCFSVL
# Cysteine protease ATG4B = target: T7, Cysteine protease ATG4B (Homo sapiens, UniProt Q9Y4P1); assay type: functional;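 note: Fluorescence-based dose-response confirmation assay measuring inhibition of ATG4B activity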
# T7 sequence (Q9Y4P1 whole entry): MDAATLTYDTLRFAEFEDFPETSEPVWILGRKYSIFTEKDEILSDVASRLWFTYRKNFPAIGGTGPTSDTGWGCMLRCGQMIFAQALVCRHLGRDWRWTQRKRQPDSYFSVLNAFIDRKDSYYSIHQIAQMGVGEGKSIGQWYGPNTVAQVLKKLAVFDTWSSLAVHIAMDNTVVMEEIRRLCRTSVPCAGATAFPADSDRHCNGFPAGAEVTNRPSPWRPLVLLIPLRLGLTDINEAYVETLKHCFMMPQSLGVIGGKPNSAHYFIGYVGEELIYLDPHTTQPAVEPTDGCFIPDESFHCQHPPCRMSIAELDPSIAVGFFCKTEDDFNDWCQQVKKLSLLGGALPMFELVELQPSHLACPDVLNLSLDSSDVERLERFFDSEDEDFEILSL
# [8] = nonselective StAR promoter luciferase inhibitors – cell-based, luminescence, luciferase reporter, counter-screen for LRH-1 inverse agonist project, dose response (AID 651969); assay type: functional
# Large T antigen = Large T antigen (Simian virus 40, UniProt P03070); assay type: functional, Betapolyomavirus macacae;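 note: Confirmatory-stage PubChem screen for compounds that inhibit SV40 T antigen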
# Chain of Large T antigen (P03070 whole entry): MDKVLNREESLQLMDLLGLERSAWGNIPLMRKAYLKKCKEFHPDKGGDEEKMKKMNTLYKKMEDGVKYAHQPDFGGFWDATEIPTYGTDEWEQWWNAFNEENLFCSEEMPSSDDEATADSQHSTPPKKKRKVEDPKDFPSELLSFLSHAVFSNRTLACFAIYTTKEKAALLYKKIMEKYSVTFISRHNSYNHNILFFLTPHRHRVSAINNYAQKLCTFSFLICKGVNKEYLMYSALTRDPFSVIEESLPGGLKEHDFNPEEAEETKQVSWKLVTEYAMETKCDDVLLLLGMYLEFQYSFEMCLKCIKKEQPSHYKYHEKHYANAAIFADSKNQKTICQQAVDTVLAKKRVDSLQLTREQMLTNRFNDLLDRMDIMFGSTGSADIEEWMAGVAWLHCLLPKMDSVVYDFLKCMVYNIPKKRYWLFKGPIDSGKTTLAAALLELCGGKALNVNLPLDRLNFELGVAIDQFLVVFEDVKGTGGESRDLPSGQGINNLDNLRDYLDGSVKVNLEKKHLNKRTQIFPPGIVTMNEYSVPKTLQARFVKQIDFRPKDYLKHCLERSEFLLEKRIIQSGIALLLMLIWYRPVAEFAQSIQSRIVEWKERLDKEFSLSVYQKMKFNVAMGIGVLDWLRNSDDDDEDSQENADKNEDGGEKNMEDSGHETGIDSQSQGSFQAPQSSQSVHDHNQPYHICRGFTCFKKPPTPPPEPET
# T2 sequence (P98170 whole entry): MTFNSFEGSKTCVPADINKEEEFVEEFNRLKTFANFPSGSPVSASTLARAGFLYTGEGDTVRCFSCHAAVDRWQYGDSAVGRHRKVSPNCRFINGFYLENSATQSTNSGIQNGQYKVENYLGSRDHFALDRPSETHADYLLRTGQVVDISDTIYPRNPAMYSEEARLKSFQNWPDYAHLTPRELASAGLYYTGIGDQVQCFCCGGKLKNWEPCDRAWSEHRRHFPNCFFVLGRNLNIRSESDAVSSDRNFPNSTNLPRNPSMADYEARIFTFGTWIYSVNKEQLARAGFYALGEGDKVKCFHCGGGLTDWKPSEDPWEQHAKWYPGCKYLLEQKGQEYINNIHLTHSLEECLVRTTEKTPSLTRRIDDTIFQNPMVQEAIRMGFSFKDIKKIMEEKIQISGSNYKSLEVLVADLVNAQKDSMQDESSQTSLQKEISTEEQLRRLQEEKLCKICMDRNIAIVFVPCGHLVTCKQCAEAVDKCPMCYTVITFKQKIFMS
# Chain of Genome polyprotein (P29990 2492-3391 limits assumed): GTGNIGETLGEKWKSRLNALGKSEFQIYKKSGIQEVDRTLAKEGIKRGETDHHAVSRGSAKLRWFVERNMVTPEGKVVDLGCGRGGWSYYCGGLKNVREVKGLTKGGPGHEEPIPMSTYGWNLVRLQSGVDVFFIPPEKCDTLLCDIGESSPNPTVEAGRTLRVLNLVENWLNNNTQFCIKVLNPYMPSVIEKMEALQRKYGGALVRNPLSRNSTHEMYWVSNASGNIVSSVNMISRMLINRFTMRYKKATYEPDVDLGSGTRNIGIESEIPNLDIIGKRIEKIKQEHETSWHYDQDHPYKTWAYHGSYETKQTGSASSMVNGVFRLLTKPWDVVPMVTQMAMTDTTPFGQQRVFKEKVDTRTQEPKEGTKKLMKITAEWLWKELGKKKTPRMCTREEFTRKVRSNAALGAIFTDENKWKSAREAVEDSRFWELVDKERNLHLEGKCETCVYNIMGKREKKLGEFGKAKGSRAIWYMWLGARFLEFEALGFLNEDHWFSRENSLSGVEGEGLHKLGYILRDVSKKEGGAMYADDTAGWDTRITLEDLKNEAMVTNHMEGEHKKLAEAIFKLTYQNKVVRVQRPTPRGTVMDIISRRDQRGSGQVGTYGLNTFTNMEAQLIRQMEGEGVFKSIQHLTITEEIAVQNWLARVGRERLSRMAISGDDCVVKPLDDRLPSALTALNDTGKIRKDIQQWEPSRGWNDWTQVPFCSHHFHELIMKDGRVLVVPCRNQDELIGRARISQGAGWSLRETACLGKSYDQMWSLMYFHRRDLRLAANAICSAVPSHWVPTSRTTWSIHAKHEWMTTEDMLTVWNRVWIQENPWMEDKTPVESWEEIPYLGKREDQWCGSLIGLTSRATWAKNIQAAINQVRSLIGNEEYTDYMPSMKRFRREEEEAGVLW
# Chain of Phospholipase A2 (P04054 whole entry): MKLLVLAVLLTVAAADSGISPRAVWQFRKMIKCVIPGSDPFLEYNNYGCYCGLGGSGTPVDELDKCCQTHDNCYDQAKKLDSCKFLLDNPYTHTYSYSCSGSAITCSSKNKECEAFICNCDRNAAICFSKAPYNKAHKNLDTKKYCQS
# Chain of Trypsin (P00761 whole entry): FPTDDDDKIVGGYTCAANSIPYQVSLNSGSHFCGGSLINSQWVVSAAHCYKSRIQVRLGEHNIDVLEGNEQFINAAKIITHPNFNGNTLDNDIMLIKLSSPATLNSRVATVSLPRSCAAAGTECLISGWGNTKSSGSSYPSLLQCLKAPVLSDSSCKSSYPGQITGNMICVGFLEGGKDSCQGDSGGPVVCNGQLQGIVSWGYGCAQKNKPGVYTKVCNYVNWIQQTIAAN
compound,measurement,setting,value
COc1ccccc1-c1sc2cc3c(cc2c1-c1ccc(O)cc1)OCO3,AC50,[1],8.22 µM (active)
CCn1c(=O)c2cc(C(=O)N(C)c3cc(C)ccc3OC)sc2c2ccccc21,IC50,cells,21.5 µM (active)
same,CC50,[2],21.2 µM (active)
CCOc1ccc(NC(=NCc2ccc3c(c2)OCO3)SC2CC(=O)N(c3ccc(C(=O)O)cc3)C2=O)cc1 (centres undefined),IC50,cells,15.6 µM (active)
same,CC50,[2],22.8 µM (active)
CCOC(=O)c1c(C)n(C)c2ccc(O)c(S(=O)(=O)c3ccccc3)c12,AC50,[3],9.92 µM (active)
O=S(=O)(c1ccc2nc(Nc3ccccc3)ccc2c1)N1CCCCC1,AC50,INS1,12.2 µM (active)
same,AC50,[3],6.53 µM (active)
CC(=N)/C(C#N)=C(/O)COC(=O)c1ccncc1,IC50,cells,1.14 µM (active)
CCOc1ccccc1N1CCN(C(=O)c2cccc(-c3ccc(O)cc3)c2)CC1,IC50,[4],> 100 µM (inactive)
same,AC50,[1],3.3 µM (active)
same,IC50,[5],> 100 µM (not active)
COc1ccc2nc3cccc(OC)c3nc2c1,AC50,[6],> 380 µM (inactive)
same,EC50,Protein RecA,20.8 µM (active)
same,IC50,Genome polyprotein,> 100 µM (active)
same,AC50,Caspase-6,23.1 µM (active)
O=C(Nc1ccccc1)n1ccc(-c2ccc(-n3ccnc3)cc2)n1,AC50,Trypsin,17.9 µM (active)
CCC(C)N=C(S)N1CCN(C)CC1 (centres undefined),AC50,[3],26.5 µM (active)
CC(C)(C)c1nc(SCC(=O)c2ccccc2)c2ccccc2n1,IC50,Phospholipase A2,10.1 µM (active)
same,IC50,[7],> 50 µM (not active)
same,IC50,Cysteine protease ATG4B,15.8 µM (active)
same,CC50,[2],39.5 µM (active)
CCc1c(C)nc(SCC(=O)Nc2ccc3c(c2)OCCO3)nc1O,IC50,[8],35.9 µM (inactive)
O=S(=O)(Nc1ccc(O)cc1)c1cccc2cccnc12,IC50,Large T antigen,7.36 µM (active)
